# Results as given in patent publication US7141696B2, “Smooth muscle spasmolytic agents” (Bridge Pharma, Inc., priority 2003, dated 2006).
# Columns and labels:
# muscarinic receptors = conditions: from prior publications and patents; cited from earlier work
# smooth muscle = conditions: from prior patents; cited from earlier work
# QTc interval = experiment: Effects on the QT-interval of the ECG; parameters: species or system guinea pigs; conditions: guinea pig, in vivo
# Description: Anesthetized male guinea pigs (450–600 g) are used. The trachea is cannulated. Lead II electrocardiogram are recorded at 50 mm/sec. The is a 30 minute stabilization time after surgery, during which three baseline EKG recordings are made at 10-min intervals. Test article or vehicle are administered as an iv infusion over 30 min. ECG recordings are used to determine QT intervals and heart rates. To compensate for variations in heart rates, QTc intervals are calculated from QT- and RR-intervals as known to those skilled in the art. Prolongation of QTc is indicative of a prolonged action potential. Prolongation of QTc is a known cause of Torsades de Pointes ventricular fibrillation by drugs such as terodiline, terfenadine and astemizole (all of which have been withdrawn because of arrhythmogenic side effect).
# bladder hyperactivity = conditions: cited from earlier work
smiles,measurement,setting,value
Cc1ccc(O)c(C(CCNC(C)C)c2ccccc2)c1 (centres unmarked) [DES-TOL],anticholinergic activity / inhibition of muscarinic receptors,muscarinic receptors,anticholinergic activity was further decreased
same,non-cholinergic spasmolytic activities,smooth muscle,express non-cholinergic spasmolytic activities
CC(C)N(CC[C@H](c1ccccc1)c1cc(CO)ccc1O)C(C)C [Example 5HM],anticholinergic activity / inhibition of muscarinic receptors,muscarinic receptors,potent and non-selective inhibition of muscarinic receptors
Cc1ccc(O)c([C@@H](CCN(C(C)C)C(C)C)c2ccccc2)c1 [S-TOL],anticholinergic activity / inhibition of muscarinic receptors,muscarinic receptors,little anticholinergic activity
same,non-cholinergic spasmolytic activities,smooth muscle,express non-cholinergic spasmolytic activities
"Cc1ccc(O)c([C@H](CCN(C(C)C)C(C)C)c2ccccc2)c1 [Tolterodine, R—N,N-diisopropyl-3-(2-hydroxy-5-methylphenyl)-3-phenylpropylamine]",delay of cardiac repolarization (prolongation of the QTc interval of the ECG),QTc interval,potently prolongs the QTc interval
same,anticholinergic activity / inhibition of muscarinic receptors,muscarinic receptors,potent and non-selective inhibition of muscarinic receptors
same,bladder hyperactivity in patients suffering from urinary incontinence,bladder hyperactivity,reduce bladder hyperactivity
